Data reported in patent publication US20190381017A1, “Compositions Comprising Serdexmethylphenidate Conjugates And Methods Of Use Thereof” (KemPharm, Inc., priority 2018, published 2019).
Values joined by “and” are separate entries in the source; they are usually repeats but may differ in a detail not shown here. Identical values can stand only once. Counter-ions that a name gives are not always drawn.

Experiments:
[1] = system: recreational stimulant users; assay: Intravenous abuse potential, VAS pharmacodynamic scores (Example 2); type: in vivo, human
Excerpt: “Drug liking” score, used herein, is the score used to assess the degree that a human participant likes a drug effect at the time the question is being asked (that is, at the moment). It is scored using a 0 to 100 point bipolar visual analogue scale (VAS) anchored in the center with a neutral anchor of “neither like nor dislike” (score of 50), on the left with “strong disliking” (score of 0) and on the right with “strong liking” (score of 100).
“Euphoria” or “Feeling High” score, used herein, is the term to describe the score used to assess the degree that a human participant is high at the time the question is being asked (that is, at the moment). It is scored using a 0 to 100 point unipolar visual analogue scale (VAS) anchored on the left with “Not at All” (score of 0) and on the right with “Extremely” (score of 100).
“Take Drug Again” score, used herein, is the term to describe the score used to assess the degree that a human participant wants to take the drug again, if given the opportunity, based on his/her opinion now, i.e., at the time the question is being asked. It is scored using a 0 to 100 point unipolar visual analogue scale (VAS) anchored on the left with “Definitely Would Not” (score of 0) and on the right with “Definitely Would” (score of 100).
“Overall Drug Liking” score, used herein, is the term to describe the score used to assess the human subject's global perception of drug liking (i.e., the subjective effects over the whole course of the drug experience including any carryover effects). Subjects respond to the statement “Overall, my liking for this drug is.” The question is scored using a 0-100 point bipolar VAS anchored on the left with “Strong Disliking” (score of 0); “Neither Like nor Dislike” (score of 50) in the middle, and anchored on the right with “Strong Liking” (score of 100). This scale has the advantage of the human subject being relatively less affected or unaffected by acute study drug effects (if any) by the time of the assessment.
“Good Effects” score, used herein, is the term to describe the score used to assess the degree that a human participant is feeling good drug effects at the time the question is being asked (that is, at the moment). Subjects respond to the statement “At this moment, I can feel good drug effects.” It is scored using a 0 to 100 point unipolar visual analogue scale (VAS) anchored on the left with “Not at All” (score of 0) and on the right with “Extremely” (score of 100).
Safety assessments were performed throughout the study.

[2] = system: healthy, nondependent, recreational stimulant users with intranasal insufflation experience; assay: Intranasal abuse potential, VAS pharmacodynamic scores (Example 5); type: in vivo, human; conditions: for Mean Overall Drug Liking / Mean Take Drug Again / Median Overall Drug Liking / Median Take Drug Again / Drug Liking Emax (median) / Feeling Drowsy/Alert Emax (mean) / Feeling Drowsy/Alert Emax (median) / Overall Drug Liking Emax (mean) / Overall Drug Liking Emax (median) / Take Drug Again Emax (mean) / Take Drug Again Emax (median) / Drug Liking Emax (mean): bipolar VAS; for Any Effect Emax (mean) / Any Effect Emax (median) / Bad Effects Emax (mean) / Bad Effects Emax (median) / Ease of Nasal Insufflation (mean) / Ease of Nasal Insufflation (median) / Feeling High Emax (mean) / Feeling High Emax (median) / Good Effects Emax (mean) / Good Effects Emax (median): unipolar VAS
Method: The study consisted of a Screening Period, an in-clinic Drug Discrimination Phase, a Treatment Phase, and a Follow-Up Visit.
Subjects who successfully completed the Screening Period returned to the clinic to complete the Drug Discrimination Phase. The Drug Discrimination Test was performed to ensure that subjects can differentiate between the effects of a single dose of d-methylphenidate hydrochloride and placebo, administered intranasally. Subjects who successfully completed the Drug Discrimination Phase remained as inpatients to enter the Treatment Phase. The Drug Discrimination Phase was a double-blind, intranasal, single-dose, 2-treatment, 2-period, 2-sequence, randomized, crossover design.
All subjects were required to fast for at least 8 hours prior to each dose of study drug until approximately 4 hours after each dose. Abuse potential measures and pharmacokinetic samples were collected at different times after the administration of study drug. Subjects who successfully completed the Drug Discrimination Phase and who qualified for the Treatment Phase remained as inpatients to enter the Treatment Phase.
The placebo dose consisted of 80 mg of microcrystalline cellulose to create the same volume.
On dosing days in the Treatment Phase, blood samples were collected for the measurement of the plasma concentrations of SDX, d-methylphenidate (d-MPH), l-methylphenidate (l-MPH) and ritalinic acid at predose and at 0.25, 0.5, 0.75, 1, 1.5, 2, 3, 4, 5, 6, 7, 8, 9, 10, 12, 16, 24, 36, and 48 hours±5 minutes after each dose of study drug. […] All VAS pharmacodynamic assessments except Take Drug Again and Overall Drug Liking were performed at 0.25, 0.5, 0.75, 1, 1.5, 2, 3, 4, 5, 6, 7, 8, 10, 12, 24 hours±5 minutes postdose. In addition, predose assessments of Feeling High, and Drowsiness/Alertness were collected. The Take Drug Again and Overall Drug Liking VAS assessments were performed at 12 and 24 hours±5 minutes postdose.

[3] = SDX Cl 30 mg, d-MPH HCl 15 mg, 12 hours
[4] = SDX Cl 30 mg, d-MPH HCl 15 mg, 12 hours, unipolar VAS
[5] = SDX Cl 30 mg, d-MPH HCl 15 mg, 24 hours
[6] = SDX Cl 30 mg, d-MPH HCl 15 mg, 24 hours, unipolar VAS
[7] = SDX Cl 30 mg, d-MPH HCl 15 mg, bipolar VAS
[8] = SDX Cl 30 mg, d-MPH HCl 15 mg, unipolar VAS
[9] = d-MPH HCl 15 mg vs SDX Cl 30 mg, bipolar VAS
[10] = d-MPH HCl 15 mg vs SDX Cl 30 mg, unipolar VAS
[11] = SDX Cl 80 mg, d-MPH HCl 40 mg, 12 hours
[12] = SDX Cl 80 mg, d-MPH HCl 40 mg, 24 hours
[13] = d-MPH HCl 40 mg vs SDX Cl 80 mg
[14] = SDX Cl 30 mg vs placebo, bipolar VAS
[15] = SDX Cl 30 mg vs placebo, unipolar VAS

## COC(=O)[C@H](c1ccccc1)[C@H]1CCCCN1 [d-methylphenidate hydrochloride, d-threo-methylphenidate hydrochloride]
[1]; [3]
  Mean Overall Drug Liking: 68.0
  Median Overall Drug Liking: 73.0
[1]; [4]
  Mean Take Drug Again: 61.3
  Median Take Drug Again: 69.5
[1]; [5]
  Mean Overall Drug Liking: 67.3
  Median Overall Drug Liking: 70.5
[1]; [6]
  Mean Take Drug Again: 54.9
  Median Take Drug Again: 58.5
[1]; [7]
  Drug Liking Emax (median): 84.5
  Overall Drug Liking Emax (mean): 72.4
  Overall Drug Liking Emax (median): 74.0
[1]; [8]
  Feeling High Emax (mean): 77.4
  Feeling High Emax (median): 79.0
  Good Effects Emax (mean): 82.1
  Good Effects Emax (median): 85.0
  Take Drug Again Emax (mean): 63.3
  Take Drug Again Emax (median): 72.5
[1]; [9]
  Median difference Drug Liking Emax: 29.0
  Median difference Overall Drug Liking, 12 hours: 16.0
  Median difference Overall Drug Liking, 24 hours: 13.5
  Median difference Overall Drug Liking, Emax: 18.0
[1]; [10]
  Mean difference Take Drug Again, 12 hours: 43.3
  Mean difference Take Drug Again, 24 hours: 39.2
  Mean difference Take Drug Again, Emax: 43.1
  Median difference Feeling High Emax: 67.0
  Median difference Good Effects Emax: 73.0
[2]; SDX Cl 80 mg, d-MPH HCl 40 mg
  Mean difference Any Effect Emax vs placebo: 88.6
  Mean difference Ease of Nasal Insufflation Emax vs placebo: 11.3
  Mean difference Feeling Drowsy/Alert Emax vs placebo: 42.3
  Mean difference Feeling High Emax vs placebo: 85.2
  Mean difference Good Effects Emax vs placebo: 90.0
  Mean difference Overall Drug Liking vs placebo, 24 hours: 26.1
  Mean difference Take Drug Again vs placebo, 12 hours: 29.1
  Mean difference Take Drug Again vs placebo, 24 hours: 28.3
  Mean difference Take Drug Again vs placebo, Emax: 31.1
  Median difference Bad Effects Emax vs placebo: 10.5
  Drug Liking Emax (median): 100
  Feeling Drowsy/Alert Emax (mean): 93.4
  Feeling Drowsy/Alert Emax (median): 100
  Overall Drug Liking Emax (mean): 81.0
  Overall Drug Liking Emax (median): 90
  Take Drug Again Emax (mean): 80.3
  Take Drug Again Emax (median): 95
  Any Effect Emax (mean): 89.2
  Any Effect Emax (median): 100
  Bad Effects Emax (mean): 18.6
  Bad Effects Emax (median): 2
  Ease of Nasal Insufflation (mean): 18.1
  Ease of Nasal Insufflation (median): 7
  Feeling High Emax (mean): 88.0
  Feeling High Emax (median): 97
  Good Effects Emax (mean): 90.6
  Good Effects Emax (median): 97
[2]; [11]
  Mean Overall Drug Liking: 79.6
  Mean Take Drug Again: 78.2
  Median Overall Drug Liking: 87
  Median Take Drug Again: 91
[2]; [12]
  Mean Overall Drug Liking: 76.3
  Mean Take Drug Again: 77.4
  Median Overall Drug Liking: 82
  Median Take Drug Again: 94
[2]; SDX Cl 80 mg, d-MPH HCl 40 mg, hydrochloride
  Drug Liking Emax (mean): 93 and 93.2
[2]; d-MPH HCl 40 mg
  Median difference Drug Liking Emax vs placebo: 45
  Median difference Overall Drug Liking vs placebo, 12 hours: 33.5
  Median difference Overall Drug Liking vs placebo, Emax: 35
[2]; [13]
  Mean difference Any Effect Emax: 39.8
  Mean difference Drug Liking Emax: 22.3
  Mean difference Ease of Nasal Insufflation Emax: -47.7
  Mean difference Feeling Drowsy/Alert Emax: 22.2
  Mean difference Feeling High Emax: 44.5
  Mean difference Good Effects Emax: 45.7
  Mean difference Overall Drug Liking, 12 hours: 19.2
  Mean difference Overall Drug Liking, 24 hours: 17.3
  Mean difference Overall Drug Liking, Emax: 19.3
  Mean difference Take Drug Again, 12 hours: 21.5
  Mean difference Take Drug Again, 24 hours: 21.5
  Mean difference Take Drug Again, Emax: 20.3
  Median difference Bad Effects Emax: 0

## COC(=O)[C@H](c1ccccc1)[C@H]1CCCCN1C(=O)OC[n+]1cccc(C(=O)N[C@@H](CO)C(=O)O)c1.[Cl-] [serdexmethylphenidate chloride]
[1]; [14]
  Mean difference Overall Drug Liking, 12 hours: 2.8
  Mean difference Overall Drug Liking, 24 hours: 1.2
  Mean difference Overall Drug Liking, Emax: 1.4
  Median difference Drug Liking Emax: 0.5
[1]; [15]
  Mean difference Feeling High Emax: 3.4
  Mean difference Good Effects Emax: 2.2
  Mean difference Take Drug Again, 12 hours: 9.1
  Mean difference Take Drug Again, 24 hours: 1.4
  Mean difference Take Drug Again, Emax: 6.0
[1]; [3]
  Mean Overall Drug Liking: 53.3
  Median Overall Drug Liking: 50.0
[1]; [4]
  Mean Take Drug Again: 17.5
  Median Take Drug Again: 0.0
[1]; [5]
  Mean Overall Drug Liking: 54.8
  Median Overall Drug Liking: 50.0
[1]; [6]
  Mean Take Drug Again: 15.7
  Median Take Drug Again: 0.0
[1]; [7]
  Drug Liking Emax (mean): 56.6
  Drug Liking Emax (median): 50.5
  Overall Drug Liking Emax (mean): 55.2
  Overall Drug Liking Emax (median): 50.0
[1]; [8]
  Feeling High Emax (mean): 14.5
  Feeling High Emax (median): 0.0
  Good Effects Emax (mean): 15.5
  Good Effects Emax (median): 0.0
  Take Drug Again Emax (mean): 19.6
  Take Drug Again Emax (median): 0.0
[2]; SDX Cl 80 mg
  Mean difference Drug Liking Emax vs placebo: 19.9
  Mean difference Overall Drug Liking vs placebo, 12 hours: 10.3
  Mean difference Overall Drug Liking vs placebo, Emax: 11.5
[2]; SDX Cl 80 mg, d-MPH HCl 40 mg
  Mean difference Any Effect Emax vs placebo: 48.8
  Mean difference Ease of Nasal Insufflation Emax vs placebo: 59.0
  Mean difference Feeling Drowsy/Alert Emax vs placebo: 20.1
  Mean difference Feeling High Emax vs placebo: 40.7
  Mean difference Good Effects Emax vs placebo: 44.2
  Mean difference Overall Drug Liking vs placebo, 24 hours: 8.8
  Mean difference Take Drug Again vs placebo, 12 hours: 7.6
  Mean difference Take Drug Again vs placebo, 24 hours: 6.7
  Mean difference Take Drug Again vs placebo, Emax: 10.8
  Median difference Bad Effects Emax vs placebo: 9.5
  Drug Liking Emax (mean): 71.0
  Drug Liking Emax (median): 71
  Feeling Drowsy/Alert Emax (mean): 71.2
  Feeling Drowsy/Alert Emax (median): 71
  Overall Drug Liking Emax (mean): 61.8
  Overall Drug Liking Emax (median): 58
  Take Drug Again Emax (mean): 60.0
  Take Drug Again Emax (median): 56
  Any Effect Emax (mean): 49.4
  Any Effect Emax (median): 47
  Bad Effects Emax (mean): 14.9
  Bad Effects Emax (median): 1
  Ease of Nasal Insufflation (mean): 65.8
  Ease of Nasal Insufflation (median): 71
  Feeling High Emax (mean): 43.4
  Feeling High Emax (median): 36
  Good Effects Emax (mean): 44.9
  Good Effects Emax (median): 42
[2]; [11]
  Mean Overall Drug Liking: 60.4
  Mean Take Drug Again: 56.7
  Median Overall Drug Liking: 58
  Median Take Drug Again: 51
[2]; [12]
  Mean Overall Drug Liking: 59.0
  Mean Take Drug Again: 55.8
  Median Overall Drug Liking: 55
  Median Take Drug Again: 50
[2]; SDX Cl 80 mg, d-MPH HCl 40 mg, listed as SDX chloride
  Drug Liking Emax (mean): 71
